Converted amounts (≈) assume the structure as drawn. Read-outs that look alike come from different tables or passages of the source.
Assays:
[1] = tested on: Streptococcus pneumoniae 1/1; test: MIC against Streptococcus pneumoniae 1/1; type: cell-based; conditions: Table 2, Streptococcus pneumoniae 1/1, trimethoprim- and penicillin-resistant, serotype 6, clinical isolate; for MIC: read-out: MIC Sp1/1
[2] = tested on: Staphylococcus aureus 101; test: MIC against Staphylococcus aureus 101; type: cell-based; conditions: Table 2, Staphylococcus aureus 101, MRSA- and trimethoprim-resistant, clinical isolate; for MIC: read-out: MIC Sa101
[3] = molecular target: T1, purified DHFR of strain Sp1/1 of Streptococcus pneumoniae (Streptococcus pneumoniae serotype 4, UniProt Q54801); type: biochemical; conditions: Table 2; IC50 against purified DHFR of strain Sp1/1
T1 sequence (Q54801 1-168 I100L): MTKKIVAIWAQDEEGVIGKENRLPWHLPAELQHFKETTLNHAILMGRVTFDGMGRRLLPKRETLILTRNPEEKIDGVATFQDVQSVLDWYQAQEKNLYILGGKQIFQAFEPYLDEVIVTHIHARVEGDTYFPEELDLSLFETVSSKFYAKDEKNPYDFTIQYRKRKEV

[4] = molecular target: purified DHFR of strain 157/4696 of Staphylococcus aureus (Staphylococcus aureus, UniProt P13955); test: biochemical
Sequence of purified DHFR of strain 157/4696 of Staphylococcus aureus (P13955 whole entry): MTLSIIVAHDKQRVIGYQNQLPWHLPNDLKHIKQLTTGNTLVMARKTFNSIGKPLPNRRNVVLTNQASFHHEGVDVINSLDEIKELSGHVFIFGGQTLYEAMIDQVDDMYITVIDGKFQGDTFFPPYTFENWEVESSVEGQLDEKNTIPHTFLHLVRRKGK

[5] = Table 2, IC50 against purified DHFR of strain 157/4696 (highly trimethoprim-resistant; clinical isolate), read-out: DHFR Sa1

| SMILES | MIC [1] [µg/mL] | MIC [2] [µg/mL] | IC50 [3] [nM] | IC50 [4] [nM] | MIC Sp1/1 [1] [µg/mL] | MIC Sa101 [2] [µg/mL] | IC50 [4, 5] [nM] |
| --- | --- | --- | --- | --- | --- | --- | --- |
| CCOc1cc(Cc2cnc(N)nc2N)cc(OS(=O)(=O)C(C)C)c1-c1ccc(C)nc1 [Example 33-g, Propane-2-sulphonic acid 5-(2,4-diamino-pyrimidin-5-ylmethyl)-3-ethoxy-2-(6-methyl-pyridin-3-yl)-phenyl ester] | 8 (≈ 17.5 µM) | 4 (≈ 8.74 µM) | 76 | 980 |  |  |  |
| CCOc1cc(Cc2cnc(N)nc2N)cc(OS(=O)(=O)CC2CC2)c1-c1ccc(N)c(F)c1 [Example 38-b, Cyclopropylmethane-sulphonic acid 4′-amino-4-(2,4-diamino-pyrimidin-5-ylmethyl)-6-ethoxy-3′-fluoro-4-ylmethyl-biphenyl-2-yl ester] |  |  | 6.5 |  | 1 (≈ 2.05 µM) | 2 (≈ 4.1 µM) | 220 |
| CCOc1cc(Cc2cnc(N)nc2N)cc(OCC)c1-c1ccc(COCC(=O)N2CCOCC2)s1 [Example 03-a, 2-[5-[4-(2,4-Diamino-pyrimidin-5-ylmethyl)-2,6-diethoxy-phenyl]-thiophen-2-ylmethoxyl]-1-morpholin-4-yl-ethanone] | 2 (≈ 3.79 µM) | 8 (≈ 15.2 µM) | 31 | 1800 |  |  |  |
| CCOc1cc(Cc2cnc(N)nc2N)cc(OS(=O)(=O)N(C)C)c1-c1ccc(O)cc1 [Example 20-a, Dimethyl-sulphamic acid 4-(2,4-diamino-pyrimidin-5-ylmethyl)-6-ethoxy-4′-hydroxy-biphenyl-2-yl ester] | 1 (≈ 2.18 µM) | 2 (≈ 4.35 µM) | 7.5 | 150 |  |  |  |
| CCOc1cc(Cc2cnc(N)nc2N)cc(OS(=O)(=O)C2CC2)c1-c1ccc(CN2CCOCC2)c(N)c1 [Example 34-e, Cyclopropanesulphonic acid 3′-amino-4-(2,4-diamino-pyrimidin-5-ylmethyl)-6-ethoxy-4′-morpholin-4-ylmethyl-biphenyl-2-yl ester] | 4 (≈ 7.21 µM) | 4 (≈ 7.21 µM) | 15 | 140 |  |  |  |
| CCOc1cc(Cc2cnc(N)nc2N)cc(OCC)c1-c1ccc2c(c1)OCCO2 [Example 02-x, 5-[4-(2,3-Dihydro-benzo[1,4]dioxin-6-yl)-3,5-diethoxy-benzyl]-pyrimidine-2,4-diamine] | 2 (≈ 4.73 µM) | 8 (≈ 18.9 µM) | 75 | 2330 |  |  |  |
| CCCS(=O)(=O)Oc1cc(Cc2cnc(N)nc2N)cc(OCC)c1-c1ccc(N)c(F)c1 [Example 32-e, Propane-1-sulphonic acid 4′-amino-4-(2,4-diamino-pyrimidin-5-ylmethyl)-6-ethoxy-3′-fluoro-4-ylmethyl-biphenyl-2-yl ester] |  |  | 6.8 |  | 1 (≈ 2.1 µM) | 4 (≈ 8.41 µM) | 280 |
| CCOc1cc(Cc2cnc(N)nc2N)cc(OS(=O)(=O)c2cccs2)c1-c1cccc(N)c1 [Example 14-f, Thiophene-2-sulphonic acid 3′-amino-4-(2,4-diamino-pyrimidin-5-ylmethyl)-6-ethoxy-biphenyl-2-yl ester] | 1 (≈ 2.01 µM) | 4 (≈ 8.04 µM) | 1.8 | 320 |  |  |  |
| CCOc1cc(Cc2cnc(N)nc2N)cc(OS(=O)(=O)N(C)C)c1-c1ccc(CN2CCOCC2)c(N)c1 [Example 30-a, Dimethylsulphamic acid 3′-amino-4-(2,4-diamino-pyrimidin-5-ylmethyl)-6-ethoxy-4′-morpholin-4-ylmethyl-biphenyl-2-yl ester] | 2 (≈ 3.59 µM) | 2 (≈ 3.59 µM) | 4.5 | 88 |  |  |  |
| CCOc1cc(Cc2cnc(N)nc2N)cc(OCC2(CCC#N)CC2)c1-c1ccc(O)cc1 [Example 47-, 3-{1-[4-(2,4-Diamino-pyrimidin-5-yjmethyl)-6-ethoxy-4′-hydroxy-biphenyl-2-loxymethyl]-cycloprropyl}-propionitrile] |  |  | 10 |  | 2 (≈ 4.35 µM) | 8 (≈ 17.4 µM) | 1200 |
